According to US6592911B2, “(−)-Olivil as antioxidant which is obtained from a new natural source namely Stereospermum personatum” (Council of Scientific and Industrial Research, priority 2001, dated 2003):

Assay: In vitro free radical (DPPH) scavenging antioxidant potency
Type: biochemical
Conditions: for 50% Radical scavenging concentration of compounds, Concentration: DPPH radical 500 μM in ethanol, tris-HCl buffer pH 7.4, 45 minutes in dark, absorbency at 517 nm, triplicate
Protocol: In Vitro Evaluation of Free Radical Scavenging Antioxidant Potency
Antioxidant activity of the compounds was tested for its capacity/potency to scavenge most widely used free radical, 1,1-diphenyl-2-picryl hyrazyl radical (DPPH). […] 200 μl of test compounds were reconstituted to 1 ml in tris-HCl buffer (pH 7.4). Equal volume of 500 μM of DPPH radical dissolved in ethanol was reacted with this. After incubation for 45 minutes in dark, the absorbency at 517 nm was recorded. Percent radical scavenging activity was calculated accordingly. All the readings were taken in triplicate.

Compound | 50% Radical scavenging concentration of compounds, Concentration [µg/mL] | antioxidant activity compared with reference drugs Probucol and alpha-tocopherol (comparison in words)
COc1cc(C[C@]2(O)CO[C@@H](c3ccc(O)c(OC)c3)[C@@H]2CO)ccc1O [(−)-Olivil] | 22.24 | better than the above mentioned reference drugs
Cc1c(C)c2c(c(C)c1O)CCC(C)(CCCC(C)CCCC(C)CCCC(C)C)O2 (stereo not drawn) [DL α-Tocopherol, reference compound] | 47.80 | –
